The values below come from BindingDB's records for patent US20250243196 (The Cleveland Clinic Foundation, 2025).

Molecules are shown by their SMILES.

The target of the test is Citron Rho-interacting kinase (Homo sapiens, UniProt O14578). Put plainly: TR-FRET Based Assay.
Citron Rho-interacting kinase, sequence (O14578 whole entry): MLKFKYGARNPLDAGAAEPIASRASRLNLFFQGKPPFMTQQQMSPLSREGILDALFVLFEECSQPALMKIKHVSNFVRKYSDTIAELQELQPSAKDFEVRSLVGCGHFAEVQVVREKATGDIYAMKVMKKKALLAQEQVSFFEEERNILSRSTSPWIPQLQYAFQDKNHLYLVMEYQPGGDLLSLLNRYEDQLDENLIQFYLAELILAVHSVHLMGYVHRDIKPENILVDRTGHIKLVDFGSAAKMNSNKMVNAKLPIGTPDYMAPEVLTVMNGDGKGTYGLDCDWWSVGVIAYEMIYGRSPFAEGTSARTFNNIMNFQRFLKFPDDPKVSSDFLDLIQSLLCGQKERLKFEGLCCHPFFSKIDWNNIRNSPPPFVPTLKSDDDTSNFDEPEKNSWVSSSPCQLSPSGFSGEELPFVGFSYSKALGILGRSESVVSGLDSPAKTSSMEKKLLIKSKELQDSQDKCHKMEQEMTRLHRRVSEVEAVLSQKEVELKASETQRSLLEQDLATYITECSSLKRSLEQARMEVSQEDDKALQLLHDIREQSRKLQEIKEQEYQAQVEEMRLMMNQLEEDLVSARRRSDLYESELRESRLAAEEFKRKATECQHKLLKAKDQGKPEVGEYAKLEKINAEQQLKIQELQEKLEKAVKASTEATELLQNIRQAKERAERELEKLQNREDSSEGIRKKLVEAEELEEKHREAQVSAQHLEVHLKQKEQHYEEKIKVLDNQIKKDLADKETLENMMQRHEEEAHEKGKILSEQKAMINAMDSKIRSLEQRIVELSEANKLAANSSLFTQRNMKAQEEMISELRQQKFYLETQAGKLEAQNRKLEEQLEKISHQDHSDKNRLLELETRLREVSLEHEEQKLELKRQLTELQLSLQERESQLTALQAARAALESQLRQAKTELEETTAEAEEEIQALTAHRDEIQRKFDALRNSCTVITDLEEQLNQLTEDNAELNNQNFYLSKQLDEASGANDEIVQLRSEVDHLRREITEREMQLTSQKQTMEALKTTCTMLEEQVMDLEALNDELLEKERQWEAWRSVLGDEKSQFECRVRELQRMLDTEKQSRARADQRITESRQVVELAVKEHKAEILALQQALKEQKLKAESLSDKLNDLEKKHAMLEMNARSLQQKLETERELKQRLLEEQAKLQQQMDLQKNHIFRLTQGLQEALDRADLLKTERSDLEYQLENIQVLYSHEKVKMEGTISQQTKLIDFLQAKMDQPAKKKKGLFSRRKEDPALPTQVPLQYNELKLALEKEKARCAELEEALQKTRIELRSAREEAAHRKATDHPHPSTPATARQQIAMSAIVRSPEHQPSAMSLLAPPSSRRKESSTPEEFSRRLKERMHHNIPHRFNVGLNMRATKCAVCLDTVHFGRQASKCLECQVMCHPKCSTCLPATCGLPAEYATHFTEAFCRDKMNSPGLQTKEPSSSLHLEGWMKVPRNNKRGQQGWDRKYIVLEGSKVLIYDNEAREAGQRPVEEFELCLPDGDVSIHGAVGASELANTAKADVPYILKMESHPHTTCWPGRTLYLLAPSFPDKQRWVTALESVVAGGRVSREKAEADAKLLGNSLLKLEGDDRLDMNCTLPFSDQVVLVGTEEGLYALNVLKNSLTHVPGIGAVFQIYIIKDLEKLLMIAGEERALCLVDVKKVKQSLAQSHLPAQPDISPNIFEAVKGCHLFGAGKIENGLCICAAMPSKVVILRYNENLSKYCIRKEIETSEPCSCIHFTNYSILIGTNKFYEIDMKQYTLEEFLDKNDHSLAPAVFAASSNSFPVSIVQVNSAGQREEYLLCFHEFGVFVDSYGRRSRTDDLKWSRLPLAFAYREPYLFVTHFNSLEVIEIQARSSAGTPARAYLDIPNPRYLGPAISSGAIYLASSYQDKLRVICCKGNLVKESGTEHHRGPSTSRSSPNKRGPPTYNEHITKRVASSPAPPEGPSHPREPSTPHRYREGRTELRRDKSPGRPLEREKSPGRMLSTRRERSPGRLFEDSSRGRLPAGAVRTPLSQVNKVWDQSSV
Description: Not found
In turn, `CNC(Cc1ccccc1)C(=O)Nc1ccc(-c2ccnc3[nH]ccc23)cc1` (stereo unspecified) [US20250243196, Compound F-121] gave an IC50 of 3000 nM.

Regarding `NC(Cc1ccc(Cl)cc1)C(=O)Nc1ccc(-c2ccnc3[nH]ccc23)cc1` (stereo unspecified) [US20250243196, Compound F-123], the IC50 turned out to be 1290 nM.

Regarding `NC(CC1CCOCC1)C(=O)Nc1ccc(-c2ccnc3[nH]ccc23)cc1` (stereo unspecified) [US20250243196, Compound F-120], the IC50 amounted to 153 nM.

`NC(Cc1cccc(Cl)c1)C(=O)Nc1ccc(-c2ccnc3[nH]ccc23)cc1` (stereo unspecified) [US20250243196, Compound F-124] displayed an IC50 of 536 nM.

`CN(C)C(Cc1ccccc1)C(=O)Nc1ccc(-c2ccnc3[nH]ccc23)cc1` (stereo unspecified) [US20250243196, Compound F-122] displayed an IC50 of 1500 nM.

`NC(Cc1ccccc1Cl)C(=O)Nc1ccc(-c2ccnc3[nH]ccc23)cc1` (stereo unspecified) [US20250243196, Compound F-125] showed a 50% inhibitory concentration (IC50) of 1770 nM.
